# Assays:
# ARPE19 cells [1] = assay: CellTiter-Glo luminescent cell viability assay, 15 μM 7KCh-induced cytotoxicity; type: cell-based, human; settings: 1 μM + 15 μM 7KCh, 24 hr
# Experimental: Error bar: standard deviation, n=4.
# CellTiter-Glo® Luminescent Cell Viability Assay is a homogeneous method of determining the number of viable cells in culture based on quantitation of the ATP (luminescent signal) present, an indicator of metabolically active cells.
# The contents in a plate were mixed for 2 min on an orbital shaker to induce cell lysis.
# 5) The plate was allowed to incubate at room temperature for 10 min to stabilize luminescent signal.
# ARPE19 cells [2] = assay: Cell Counting Kit-8 viability assay, 15 μM 7KCh-induced cytotoxicity; settings: 1 μM fatty acid + 15 μM 7KCh
# Experimental: 4×10^4 cells were seeded onto wells of a 96 well plate. […] Cell viability was determined as celluar dehydrogenase activity and expressed as the percentage of compound treated cells relative to that of untreated controls. error bar: standard deviation, n=4.
# The kit allows sensitive colorimetric assays for the determination of the number of viable cells in cell proliferation and cytotoxicity assays. The amount of the formazan dye generated by the activity of dehydrogenases in cells is directly proportional to the number of living cells.
# 1) Cells were cultivated in a 96 well cell plate (Costar#3599, Corning Incorp, Corning, N.Y.).
# 2) The cell suspension (40,000 cells/100 μL) were added to 100 μL culture media per well and stood for 15 min at room temperature and cultured at 37° C. in a humidified 5% CO2 atmosphere.
# 3) Approximately 19 hr after seeding, when the cells were fully confluent, the cells were treated with either DMSO or 1 μM fatty acid in 200 μL of serum free media and subsequently added with 15 μM 7KCh in HPBCD. Then, the plate was swirled for mixing. The cells were also treated with DMSO and HPBCD, which served as vehicle control. The final DMSO and HPBCD concentrations in the media were in the range of 0.1% and 0.0675%, respectively.
# Cell viability was expressed as the percentage of compound treated cells relative to that of untreated controls. Prior to measure cell viability, the cells were imaged live by Nikon TE 2000-U inverted fluorescent microscope.
# ARPE19 cells [3] = assay: Phase-contrast images of cells after co-treatment with 15 μM 7KCh; type: cell-based, human; settings: 1 μM fatty acid + 15 μM 7KCh, 24 hr
# Source text: FIG. 8 depicts phase-contrast images of ARPE19 cells at 24 hr after sterculic acid co-treatment with 7KCh.
# Leukemia, SR-91 = assay: NCI in vitro anti-cancer cell line screen (SRB); settings: Homo sapiens, 48 h
# Experimental: (§2) The human tumor cell lines used in the cancer screen panel were grown in RPMI 1640 medium containing 5% FBS and 2 mM L-glutamine. The cells were inoculated into 96-well microtiter plates in 100 μl at plating density ranging from 5000 to 40,000 cell/well. […] Following drug addition, the plates were incubated for an additional 48 h. The assay was terminated by the addition of cold 10% TCA. The supernatant was discarded, and the plates were washed five times with water and air dried. Sulforhodamine B (SRB) solution (100 μl) at 0.4% (w/v) in 1% acetic acid was added to each well, and plates were incubated for 10 min at room temperature. After staining, unbound dye was removed by washing five times with 1% acetic acid and the plates were air dried. Bound stain was subsequently solubilized with 10 mM trizma base, and the absorbance was read on an automated plate reader at a wavelength of 515 nm.
# (§3) A sulforhodamine B (SRB) end point was used to calculate the median growth inhibition (GI50). GI50 refers to the concentration at which the drug inhibits tumor cell growth by 50%.
# ARPE-19 cells = assay: qRT-PCR of inflammatory cytokines and ER stress markers, 7KCh-mediated inflammation; type: cell-based
# Experimental: FIGS. 13A-13D depict mRNA expressions of (A) VEGF, (B) IL-6, (C) GRP78, and (D) CHOP in response to 8 μM 7KCh with or without 1 μM long-chain fatty acids. Error bars indicate the standard deviations. *p<0.05 comparing to 7KCh, n=3. Two-tailed Student's t-test.
# (§1) FIGS. 14A-14D depict mRNA expressions of (A) VEGF, (B) IL-1b, (C) IL-6, and (D) IL-8 in response to 8 μM 7KCh, 1 μM sterculic acid, 1 μM stearic acid, or the combinations of 7KCh with either sterculic acid or stearic acid. Error bars indicate the standard deviations. *p<0.05 comparing to 7KCh, n=4. Two-tailed Student's t-test.
# as §1, with “15A-15D” for “14A-14D”, “TNF-α,” for “VEGF,”, “TGF-β1,” for “IL-1b,”, “GRP78,” for “IL-6,”, “CHOP” for “IL-8”, “n=3-4.” for “n=4.”
# ARPE-19 cells were seeded in 24-well plates with 1×10^5 cells per well and allowed to recover for 16-24 hr. Once confluency reached approximately 90%, the effect of the fatty acids against 7KCh-mediated cell death was examined 24 hr after incubation in serum-free medium with 12 μM 7KCh. Fatty acids were tested at 0.1, 0.5, 1, 5 and 10 μM concentrations. The effects of the fatty acids against 7KCh-mediated inflammation and ER stress were examined by incubating cells in 1 μM fatty acids with either 8 μM 7KCh (24 hr for quantitative real-time PCR (qRT-PCR), 24 and 48 hr for immunoblot), or 6 μM 7KCh for 48 hr (for ELISA). Three individual experiments were performed for each treatment with quadruplicate measurements performed for each experiment in 24-well plates.
# The RNA was extracted using RNeasy Mini Kit (Qiagen, Valencia, Calif.). The reverse transcription was performed with reagents and kits from Invitrogen. Quantification of mRNA expression was performed using the Taqman gene expression assays and the following primers (VEGFa, Hs00173626_m1; IL-1β, Hs01555413_m1; IL-6, Hs00174131_m1; IL-8, Hs00174103_m1; IκBα, Hs00153283_m1; GRP78, Hs99999174_m1; CHOP, Hs01090850_m1; NOX2, Hs00166163_m1; NOX4, Hs01558199_m1; SCD, Hs00748952 s1; TNF-α, Hs00174128_m1; TGF-β1, Hs00998133_m1; GAPD, 4352934e). GAPD expression was used as an endogenous standard. All qRT-PCR experiments were measured in triplicates in an ABI 7500 Real-Time PCR Instrument (Applied Biosystems, Foster City, Calif.). The results of each treatment were normalized and presented in percentage relative to the vehicle-only control.
# D407 cells = assay: 7-ketocholesterol-mediated cytotoxicity, 24-well CCK-8 viability; settings: 11 μM 7KCh, 24 hr, CCK-8
# Melanoma, UACC-62 = assay: NCI in vitro anti-cancer cell line screen (SRB); settings: Homo sapiens, UACC-62, 48 h
# Experimental: as §2, §3
# Melanoma, LOX-IMVI = assay: NCI in vitro anti-cancer cell line screen (SRB); settings: Homo sapiens, 48 h
# Experimental: as §2, §3
structure (smiles),measurement,setting,value
"CCCCCCCCC1=C(CCCCCCCC(=O)O)C1 [sterculic acid, 8-(2-octacyclopropen-1-yl)octanoic acid]",cell viability relative to the level of untreated control (ATP level),ARPE19 cells [1],80%
same,protective effect against cytotoxicity by 7KCh (summary of the viability assays),ARPE19 cells [2],greatest protective effect
same,cell morphological changes compared to 7KCh alone,ARPE19 cells [3],much less proportion of dead cell and cell debris
same,GI50,"Leukemia, SR-91",10000 nM
same,effect on 7KCh-mediated mRNA induction (inflammatory response),"ARPE-19 cells; 1 μM fatty acid + 8 μM 7KCh, 24 hr, FIG. 13",complete inhibition
same,effect of fatty acid alone on the mRNA expression of the cytokines,"ARPE-19 cells; 1 μM fatty acid alone, no 7KCh, FIGS. 14, 15",no effect
same,VEGF mRNA expression,"ARPE-19 cells; 8 μM 7KCh alone or with 1 μM fatty acid, 24 hr, FIG. 13A",basal levels
same,IL-6 mRNA expression,"ARPE-19 cells; 8 μM 7KCh alone or with 1 μM fatty acid, 24 hr, FIG. 13B",basal levels
same,GRP78 mRNA expression,"ARPE-19 cells; 8 μM 7KCh alone or with 1 μM fatty acid, 24 hr, FIG. 13C",basal levels
same,CHOP mRNA expression,"ARPE-19 cells; 8 μM 7KCh alone or with 1 μM fatty acid, 24 hr, FIG. 13D",basal levels
same,induction of VEGF mRNA,"ARPE-19 cells; 8 μM 7KCh alone or with 1 μM fatty acid, FIG. 14A",2.5 fold
same,induction of IL-1β mRNA,"ARPE-19 cells; 8 μM 7KCh alone or with 1 μM fatty acid, FIG. 14B",3.9 fold
same,induction of IL-6 mRNA,"ARPE-19 cells; 8 μM 7KCh alone or with 1 μM fatty acid, FIG. 14C",5.1 fold
same,induction of IL-8 mRNA,"ARPE-19 cells; 8 μM 7KCh alone or with 1 μM fatty acid, FIG. 14D",1.8 fold
same,induction of TNF-α mRNA,"ARPE-19 cells; 8 μM 7KCh alone or with 1 μM fatty acid, FIG. 15A",1.5 fold
same,induction of TGF-β1 mRNA,"ARPE-19 cells; 8 μM 7KCh alone or with 1 μM fatty acid, FIG. 15B",1 fold
same,induction of GRP78 mRNA,"ARPE-19 cells; 8 μM 7KCh alone or with 1 μM fatty acid, FIG. 15C",1.3 fold
same,induction of CHOP mRNA,"ARPE-19 cells; 8 μM 7KCh alone or with 1 μM fatty acid, FIG. 15D",4.1 fold
same,co-treatment concentration that completely offsets the 7KCh cytotoxic effect (viability at level of control),D407 cells,5 µM
same,GI50,"Melanoma, UACC-62",1000 nM
same,GI50,"Melanoma, LOX-IMVI",1000 nM

# Source: patent publication US8993626B2, “Methods of treatment using sterculic acid” (The United States of America, as represented by the …, priority 2010, dated 2015)
